Source: patent EP0751957B1, “PEPTIDE FRAGMENTS OF MICROBIAL STRESS PROTEINS AND PHARMACEUTICAL COMPOSITION MADE THEREOF FOR THE TREATMENT AND PREVENTION OF INFLAMMATORY DISEASES” (priority 1994, dated 2004)

Assays:
[1] = tested on: primed lymph node cells (PLNC); experiment: T cell proliferation assay, PLNC from peptide-immunised rats; type: cell-based, Lewis rats; details: PLNC 10 days after immunisation with peptide 176-190 (100 µg/DDA); in vitro peptide 20 µg/ml
[2] = tested on: hsp65-specific T cell line; experiment: T cell proliferation assay, hsp65-specific T cell line; type: cell-based, Lewis rats; details: short term lines from ten day hsp65-PLNC, seven days after first restimulation
Experimental: (§1) T cell proliferation assays: PLNC were cultured in triplicate in 200 µl flat bottom microtitre wells (Costar) at 2 x 10^5 cells per well with or without antigen. In initial experiments PLNC were tested for responsiveness to individual peptides at concentrations of 5 and 20 µg/ml, and Mt, hsp65 and PPD over a range of concentrations. Concanavalin A (2 µg/ml) was used as a positive control for T cell proliferation. Cultures were incubated for 96 h at 37°C in a humidified atmosphere of 5% CO2. Cultures were pulsed for the final 16 h with [^3H] TdR (Amersham, U.K., 1 uCi/well) and TdR uptake measured using a liquid scintillation β counter. Assays using T cell lines were performed as above using 2 x 10^4 line cells per well with irradiated (30 Gy) syngeneic accessory cells (either 3 x 10^5 splenocytes/well or 10^6 thymocytes/well). Results are expressed as mean counts per minute (cpm) of triplicate cultures. In experiments where responses to Ag were low, responses were considered significant if the stimulation index (S.I. = […]) was greater than two and Student's t tests gave p < 0.01.
T cell lines: T cell lines with specificity for mycobacterial hsp65 or peptides were generated by bulk stimulation of either hsp65-PLNC or Mt-PLNC. PLNC were cultured at 5 x 10^6/ml in culture medium supplemented with 2% normal rat serum (NRS) in the presence of 10 µg/ml Ag. […]

adjuvant arthritis = experiment: Adjuvant arthritis (AA) induced with Mt in IFA, clinical arthritis score; type: in vivo, Lewis rats; details: 100 µg peptide in DDA, hind footpads, 7 days prior to AA induction with Mt
Experimental: Induction and clinical assessment of experimental arthritis: Arthritis was induced by a single intradermal injection in the base of the tail. AA was induced with 0.5 mg Mt suspended in 100 µl IFA. CP20961 arthritis was induced with 2 mg CP20961 in 100 µl light mineral oil (Sigma). Rats were examined daily for clinical signs of arthritis. Severity of arthritis was assessed by scoring each paw from zero to four based on degree of swelling, erythema and deformity of the joints. Thus the maximum possible arthritis score was 16.
Modulation of arthritis with hsp65 peptides and epitope-specific T cell lines: Synthetic peptides corresponding to eight T cell epitopes present in mycobacterial hsp65 were tested for protective effects on arthritis development. Rats were immunised with 100 µg of individual peptide seven days prior to arthritis induction. Peptides were immunised in each hind footpad in 10 mg/ml DDA (50 µl/pad). Control rats received only PBS/DDA. Epitope-specific T cell lines were also tested for protective activity by intravenous administration of lines at the time of arthritis induction. T cell lines were restimulated in vitro with irradiated spleen APC and specific peptide. Four days later T cell blasts were harvested by ficoll gradient, washed and applied to a second ficoll gradient to remove any contaminating APC. T cells were washed twice in wash medium and twice in PBS and finally suspended at 2.5x10^7/ml in PBS. Immediately prior to injection of Mt, 200 µl (i.e. 5x10^6) T cells were injected i.v. in the tail vein.
The effects of preimmunisation with synthetic peptides containing individual epitopes on the development of AA were analysed (Fig. 7). The eight peptides which primed for epitope specific T cells were tested. Rats were immunised with 100 µg of peptide 7 days prior to AA-induction with Mt.

[3] = tested on: PLNC from preimmunised rats; experiment: T cell proliferation assay, PLNC of peptide-preimmunised AA rats 42 days after Mt; type: cell-based, Lewis rats; details: 42 days after Mt administration
Experimental: Immunisations with synthetic peptides and primed lymph node populations: Rats were immunised with 50 µg of synthetic peptide in PBS/DDA in each hind footpad (i.e. 50 µg/footpad, 100 µg/rat). Ten days later, draining popliteal lymph nodes were removed, disaggregated, washed three times and used as a source of primed lymph node cells (PLNC). In some experiments, PLNC were derived as pooled inguinal and popliteal lymph nodes from AA rats 35-42 days post Mt immunisation.
as §1
PLNC from preimmunised rats were tested for responsiveness to hsp65 epitopes 42 days after Mt administration (Fig. 8). […] Responses to peptide 176-190 containing the AA-associated epitope were found in all PLNC populations (and enhanced after 176-190 preimmunisation) with one exception.

peptide 176-190: synthetic 15mer of mycobacterial hsp65 containing the AA-associated epitope 180-188
CPM PLNC [1]: 57707 cpm | hsp65-specific T cell line response to peptide [2]: strong responses | protection against AA development after peptide preimmunisation (adjuvant arthritis): no effect on AA onset | PLNC response to peptide, rats preimmunised with PBS/DDA alone [3]: significant responses | PLNC response to peptide, rats preimmunised with peptide 256-270 ([3]; rats protected from AA): total lack of response
